{"source": "patent US20220249440A1", "about": "“MUSCLE RE[…]” (SATO PHARMACEUTICAL CO., LTD., priority 2019, published 2022)", "key": {"[1]": {"system": "muscle-damaged model animal (CTX administered to tibialis anterior muscle)", "assay": "Muscle regeneration in cardiotoxin (CTX) muscle-damaged model animal; area of regenerated single muscle fibers with central nuclei in tibialis anterior muscle", "type": "in vivo, C57BL/6 male mice", "conditions": "10 μL intramuscular into tibialis anterior muscle once a day from day before CTX to 6 day after CTX; for increase in the mean muscle fiber area of regenerated muscle as compared with the Vehicle administration group: 7 days after CTX, P<0.0001; for histogram of the regenerated single-muscle fiber area vs Vehicle administration group: muscle collected 7 days after CTX", "description": "Seven-week old C57BL/6 male mice (CLEA Japan, Inc.) were purchased, and used for experiment at the age of 8 weeks.\nA model animal to which muscle damage had been caused by administration of snake venom cardiotoxin (CTX) was used. The muscle-damaged model animal has been widely used in studies on the regeneration from muscle damage.\nUnder the anesthesia with isoflurane, 50 μL of 10 μM CTX was administered to the tibialis anterior muscle of the right hindlimb of the mouse. After 7 days of the administration of CTX, the tibialis anterior muscle was collected by dissection, and supplied to the preparation of a muscle tissue section.\nImmediately after the collection of the tibialis anterior muscle, the tibialis anterior muscle was immersed in isopentane cooled with liquid nitrogen and was rapidly frozen. The frozen muscle tissue was cut into slices each having a thickness of 10 μm by using a cryostat (Leica Biosystems), and the slice was attached onto an antistripping coated slide glass (Matsunami Glass Ind., Ltd).\nA muscle tissue section was sufficiently air dried for 30 minutes under room temperature. After that, the muscle tissue section was fixed by immersing it in acetone cooled to −30° C. and treating at −30° C. for 20 minutes. The fixed section was air dried once and washed with PBS. Then the section was blocked by dropwisely adding a blocking reagent (Blocking One, NACALAI TESQUE, INC.) to the section and being subjected to the blocking treatment for 1 hour. Next, a primary antibody (Anti-Laminin-2 (α-2 Chain) antibody, Rat monoclonal (Sigma-Aldrich)) obtained by being diluted 500 times with the blocking reagent was added dropwise, and the reaction was conducted at overnight at 4° C. Since laminin to which a primary antibody binds is a protein expressed in all muscle cells, the primary antibody was used in this experiment in order to measure the area of individual muscle cells in a section. The muscle tissue section after the reaction with the primary antibody was washed with PBS, and then was reacted for 1 hour with a secondary antibody (CF 488A Goat Anti-Rat IgG (H+L) (Biotium)) obtained by being diluted 500 times with the blocking reagent. The secondary antibody that is an anti-rat antibody conjugated with a fluorescent dye binds to the primary antibody, and stains the laminin. The muscle tissue section after the reaction with the secondary antibody was washed with PBS, and sealed by using “[…] Hard⋅Set with DAPI” (Vector), and then the fluorescence observation was performed with an inverted microscope FSX100 (OLYMPUS). The “[…] Hard⋅Set with DAPI” was used for staining the central nucleus of muscle cells.\nThe muscle regeneration was evaluated on the basis of the image data taken from the fluorescence observation. In this experiment, muscle cells each having a central nucleus (single muscle fibers having central nuclei) were used as an indicator for regenerated muscle. After the image data was taken into image analysis software ImageJ (NIH), a muscle cell having a central nucleus was extracted. The cross-sectional area of the extracted individual cells was measured on the basis of the cell membrane stained with laminin. For the area measurement, “Analyze Particles” that is an add-in analysis program on ImageJ was used. The measurement results were shown as a distribution chart (histogram) of the area and number of regenerated single-muscle fibers, and as an average value of the cross-sectional areas of all the regenerated single muscle fibers (mean muscle fiber area)."}, "5-HT2B receptor": {"target": "5-HT2B receptor (Homo sapiens, UniProt P41595)", "sequence (P41595 whole entry)": "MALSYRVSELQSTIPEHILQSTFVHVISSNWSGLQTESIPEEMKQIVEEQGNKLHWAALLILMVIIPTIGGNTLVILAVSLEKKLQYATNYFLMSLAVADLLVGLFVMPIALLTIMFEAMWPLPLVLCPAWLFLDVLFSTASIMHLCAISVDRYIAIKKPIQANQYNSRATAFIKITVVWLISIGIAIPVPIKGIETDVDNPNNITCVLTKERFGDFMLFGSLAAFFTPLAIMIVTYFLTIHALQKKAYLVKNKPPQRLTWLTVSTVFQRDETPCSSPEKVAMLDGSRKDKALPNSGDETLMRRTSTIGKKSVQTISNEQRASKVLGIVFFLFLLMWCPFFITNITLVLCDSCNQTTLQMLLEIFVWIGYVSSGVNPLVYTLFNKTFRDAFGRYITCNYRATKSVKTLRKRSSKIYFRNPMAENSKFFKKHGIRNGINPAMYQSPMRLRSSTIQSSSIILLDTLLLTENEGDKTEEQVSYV", "conditions": "cited literature: Br. J. Pharmacol. 128(1):13-20, 1999; J. Pharmacol. Exp. Ther. 347(3):645-59, 2013; cited from earlier work"}, "[2]": {"conditions": "5 mM in PBS with 5% dimethyl sulfoxide"}}, "data": [{"smiles": "CC(N)Cc1c[nH]c2ccc(OCc3cccs3)cc12", "note": "(stereo not drawn) [BW723C86, 1-(5-(thiophen-2-ylmethoxy)-1H-indol-3-yl)propan-2-amine]", "values": [{"measurement": "increase in the mean muscle fiber area of regenerated muscle as compared with the Vehicle administration group", "setting": "[1]; [2]", "value": 9.5, "unit": "%"}, {"measurement": "histogram of the regenerated single-muscle fiber area vs Vehicle administration group", "setting": "[1]; [2]", "value": "shifted to the right side"}, {"measurement": "5-HT2B receptor agonist activity (known from literature)", "setting": "5-HT2B receptor", "value": "selective 5-HT2B receptor agonist"}]}, {"smiles": "Cn1c2c(c3ccccc31)CCNCC2", "note": "[PNU 22394, 6-methyl-1,2,3,4,5,6-hexahydroazepino[4,5-b]indole]", "values": [{"measurement": "increase in the mean muscle fiber area of regenerated muscle as compared with the Vehicle administration group", "setting": "[1]; 10 mM in PBS", "value": 8.5, "unit": "%"}, {"measurement": "histogram of the regenerated single-muscle fiber area vs Vehicle administration group", "setting": "[1]; 10 mM in PBS", "value": "shifted to the right side"}, {"measurement": "5-HT2B receptor agonist activity (known from literature)", "setting": "5-HT2B receptor", "value": "5-HT2B receptor agonist"}]}, {"smiles": "CC(N)Cc1c[nH]c2ccc(O)cc12", "note": "(stereo not drawn) [α-methyl-5-HT, 3-(2-aminopropyl)-1H-indol-5-ol]", "values": [{"measurement": "increase in the mean muscle fiber area of regenerated muscle as compared with the Vehicle administration group", "setting": "[1]; [2]", "value": 23, "unit": "%"}, {"measurement": "histogram of the regenerated single-muscle fiber area vs Vehicle administration group", "setting": "[1]; [2]", "value": "shifted to the right side"}, {"measurement": "5-HT2B receptor agonist activity (known from literature)", "setting": "5-HT2B receptor", "value": "5-HT2B receptor agonist"}]}]}
